Source: patent US20260335345A1, “COMPOSITION FOR IMPROVING NICOTINAMIDE MONONUCLEOTIDE PRODUCTION” (MEIJI HOLDINGS CO., LTD., priority 2022, published 2026)

Legend:
[1] = test system: inflammatory bowel disease; conditions: in vivo; cited from earlier work
[2] = test system: aged mice; conditions: cited from earlier work
[3] = test system: mice with type II diabetes; conditions: type II diabetes induced by a high-fat diet; cited from earlier work
[4] = NMN administration; cited from earlier work
[5] = test system: aged mice; conditions: cited from earlier work; remark: listed apart in the source
[6] = test system: human feces #1 to #3 (human fecal-derived gut microbiota); assay: NMN production by human fecal cultures in GAM evaluation medium with 0.5% carbohydrate (Test Example 2); format: cell-based; conditions: 37 °C, anaerobic, 12 hours; for NMN Concentration (Avg Value): GAM medium, average of human feces #1 to #3, only substance of its classification; for NMN concentration in culture (FIG. 2), in words: average of human feces #1 to #3
Method: 1 mg of human feces (#1 to 3) collected from different individuals was added to 1 mL of GAM medium supplemented with glucose SO that the final concentration was 0.5%, and cultured at 37 °C in an anaerobic glove box for 12 hours, and then the NMN concentration in the culture solution was measured. As the GAM medium, GAM semi-fluid medium for saccharolysis (manufactured by Nissui Pharmaceutical Co., Ltd.) was dissolved in water to a predetermined concentration, filtered through a 0.8 μm filter, and autoclaved at 115 °C for 15 minutes. The NMN concentration was measured by the following method. That is, first, the supernatant obtained by centrifuging the culture solution was filtered through a 0.22 μm filter, and then the filtrate was mixed with methanol (final concentration: 80 v/v %) and allowed to stand on ice for 30 minutes. Next, the supernatant obtained by centrifuging this was dried using a centrifugal evaporator. Next, the obtained dried product was dissolved in an ammonium acetate solution and subjected to a liquid chromatograph mass spectrometer (LC-MS/MS) for analysis under the following conditions to measure the NMN concentration. (LC-MS/MS analysis conditions)
First, each evaluation medium was prepared by adding any one of the carbohydrates shown in Table 1 below to the GAM medium (without glucose added) so that the final concentration was 0.5%. As a comparative example, an evaluation medium to which distilled water (DW) was added instead of carbohydrate was also prepared. Next, 1 mg of the same human feces #1 to #3 as in Test Example 1 was added to 1 mL of the evaluation medium, and cultured at 37 °C in an anaerobic glove box for 12 hours. After culturing, the NMN concentration in the culture solution was measured by liquid chromatograph mass spectrometer (LC-MS/MS) by the method described in Test Example 1.

[7] = cited from earlier work
[8] = test system: human gut microbiota in human flora mice; assay: NMN concentration in feces of human flora mice given kestose (Test Example 4); format: in vivo; conditions: 5% kestose aqueous solution ad libitum
Method: 1 mg of human feces (#1 to 3) collected from different individuals was added to 1 mL of GAM medium supplemented with glucose SO that the final concentration was 0.5%, and cultured at 37 °C in an anaerobic glove box for 12 hours, and then the NMN concentration in the culture solution was measured. As the GAM medium, GAM semi-fluid medium for saccharolysis (manufactured by Nissui Pharmaceutical Co., Ltd.) was dissolved in water to a predetermined concentration, filtered through a 0.8 μm filter, and autoclaved at 115 °C for 15 minutes. The NMN concentration was measured by the following method. […]
Using kestose (manufactured by Meiji Food Materia Co., Ltd.), the effect of improving NMN production in the intestine (large intestine) of human flora mice, which were germ-free mice transplanted with human gut microbiota, was evaluated. […] Next, the mixed supernatant was dried using a centrifugal evaporator, the obtained dried product was dissolved in an ammonium acetate solution, filtered through a 0.22 μm filter, and then the NMN concentration in the filtrate was measured by liquid chromatograph mass spectrometer (LC-MS/MS) by the method described in Test Example 1 to calculate the NMN concentration (ng/mL) in the feces.

For `NC(=O)c1ccc[n+]([C@@H]2O[C@H](COP(=O)([O-])OP(=O)(O)OC[C@H]3O[C@@H](n4cnc5c(N)ncnc54)[C@H](O)[C@@H]3O)[C@@H](O)[C@H]2O)c1` [NAD, nicotinamide adenine dinucleotide], which “effect in improving inflammatory bowel disease” value [1] is on record?
The value was “effective in improving inflammatory bowel disease”.

With `NC(=O)c1ccc[n+]([C@@H]2O[C@H](COP(=O)([O-])O)[C@@H](O)[C@H]2O)c1` [NMN, β-nicotinamide mononucleotide] as the compound, how does the “effects of NMN administration in aged mice” value [2] read?
The value was “suppressed age-related obesity, improved energy metabolism, and improved insulin resistance, lipid metabolism, eye function, bone density, and immune function”.

And the “age-related changes in gene expression” value ([2]; skeletal muscle, fat, and liver)?
The value was “suppression of age-related changes in gene expression in skeletal muscle, fat, and liver”.

And the “gene expression related to oxidative stress, inflammatory response, and circadian rhythm” value [3]?
Its value is “restored gene expression related to oxidative stress, inflammatory response, and circadian rhythm”.

What about the “glucose tolerance, hepatic insulin sensitivity” value [3] of the same compound?
The value was “improved glucose tolerance disorder and hepatic insulin sensitivity”.

What about the “age-related declines in organ function and dementia of the Alzheimer type” value [4] of the same compound?
Its value is “improved age-related declines in liver function, renal function, skeletal muscle function, and cardiac function, as well as dementia of the Alzheimer type”.

And the constipation [5]?
Its constipation is “improved constipation”.

With `O=C(CO)[C@@H](O)[C@@H](O)[C@H](O)CO` [Tagatose, D-Tagatose] as the compound, how does the “NMN Concentration (Avg Value)” value [6] read?
The value was 100 ng/mL.

Which “NMN concentration in culture (FIG. 2), in words” value (shortened to “NMN concentration in culture”) [6] does the source give for `OC[C@H]1O[C@@H](O[C@H]2[C@H](O)[C@@H](O)C(O)O[C@@H]2CO)[C@H](O)[C@@H](O)[C@@H]1O` (stereo partly drawn) [cellobiose, D-Cellobiose] here?
Its value is “higher NMN concentrations than glucose and sucrose”.

What does the source list for `O=C[C@H](O)[C@@H](O)[C@H](O)[C@H](O)CO` [glucose, D-Glucose]?
absorption in the small intestine [7]: completely absorbed into the body in the small intestine; decomposition and absorption in the upper digestive tract in vivo [7]: decomposed and absorbed in the upper digestive tract in vivo

Which “NMN concentration in culture” value [6] does the source give for `OC[C@H]1O[C@@](CO)(OC[C@@]2(O[C@H]3O[C@H](CO)[C@@H](O)[C@H](O)[C@H]3O)O[C@H](CO)[C@@H](O)[C@@H]2O)[C@@H](O)[C@@H]1O` [kestose, 1-Kestose] here?
Its value is “higher NMN concentrations than glucose and sucrose”.

And the “amount of NMN produced by human gut microbiota in vivo” value [8]?
The value was “increases the amount of NMN produced by human gut microbiota in vivo”.

What about the “NMN concentration in feces vs Day 0” value ([8]; Day 1, 3, and 9 (FIG. 4)) of the same compound?
Its value is “higher on Day 1, 3, and 9”.

For `OC[C@H]1O[C@@H](O[C@H]2[C@H](O)[C@@H](O)[C@@H](O[C@]3(CO)O[C@H](CO)[C@@H](O)[C@@H]3O)O[C@@H]2CO)[C@H](O)[C@@H](O)[C@H]1O` [lactosucrose, Lactosucrose], which “NMN concentration in culture” value [6] is on record?
Its value is “higher NMN concentrations than glucose and sucrose”.

For `OC[C@H]1O[C@H](OC[C@H]2O[C@H](O[C@]3(CO)O[C@H](CO)[C@@H](O)[C@@H]3O)[C@H](O)[C@@H](O)[C@@H]2O)[C@H](O)[C@@H](O)[C@H]1O` [raffinose, Raffinose], which “NMN concentration in culture” value [6] is on record?
The value was “higher NMN concentrations than glucose and sucrose”.

With `CC(=O)N[C@H]1[C@H]([C@H](O)[C@H](O)CO)O[C@@](O[C@H]2[C@@H](O)[C@@H](CO)O[C@@H](O[C@H]3[C@H](O)[C@@H](O)C(O)O[C@@H]3CO)[C@@H]2O)(C(=O)O)C[C@@H]1O` (some centres unmarked) [sialyllactose, 3′-Sialyllactose] as the compound, how does the “NMN concentration in culture” value [6] read?
The value was “relatively low NMN concentration”.

For `OC[C@H]1O[C@@](CO)(O[C@H]2O[C@H](CO)[C@@H](O)[C@H](O)[C@H]2O)[C@@H](O)[C@@H]1O` [sucrose, D-Sucrose], which “decomposition and absorption in the upper digestive tract in vivo” value [7] is on record?
Its value is “decomposed and absorbed in the upper digestive tract in vivo”.

With `O=C[C@H](O)[C@@H](O)[C@H](O)CO` [xylose] as the compound, how does the “absorption in the small intestine” value [7] read?
The value was “completely absorbed into the body in the small intestine”.

With inulin as the compound, how does the “NMN Concentration (Avg Value)” value [6] read?
The value was 70 ng/mL.
